Measured values from publication PMC8119466, “A screen of FDA-approved drugs identifies inhibitors of protein tyrosine phosphatase 4A3 (PTP4A3 or PRL-3)” (Scientific Reports, 2021).
Where a name gives a salt, the structure may show the parent alone. Read-outs that look alike come from different tables or passages of the source.

Legend:
Assay type in all cases: biochemical
recombinant PRL-1 = biological target: T1, recombinant PRL-1 (Homo sapiens, UniProt Q93096); assay: In vitro phosphatase assay (DiFMUP hydrolysis), PRL-1; also: test concentration or dose not given here
T1 construct: 6xHis (N, cleaved yes); made in house; host or cells: E. coli One Shot BL21 Star
T1 sequence (Q93096 1-173): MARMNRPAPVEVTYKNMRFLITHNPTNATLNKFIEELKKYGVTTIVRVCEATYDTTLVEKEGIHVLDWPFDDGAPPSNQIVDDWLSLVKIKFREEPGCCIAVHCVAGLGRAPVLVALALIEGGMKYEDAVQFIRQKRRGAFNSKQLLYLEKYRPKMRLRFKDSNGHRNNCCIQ

recombinant PRL-2 = biological target: T2, recombinant PRL-2 (Homo sapiens, UniProt Q12974); assay: In vitro phosphatase assay (DiFMUP hydrolysis), PRL-2;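 also: PRL-2 activity read as DiFMUP hydrolysis after 20 min at room temperature with drug, enzyme first pre-reduced at 4 °C for 20 min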
T2 construct: 6xHis (N, cleaved yes); made in house; host or cells: E. coli One Shot BL21 Star
T2 sequence (Q12974 1-167): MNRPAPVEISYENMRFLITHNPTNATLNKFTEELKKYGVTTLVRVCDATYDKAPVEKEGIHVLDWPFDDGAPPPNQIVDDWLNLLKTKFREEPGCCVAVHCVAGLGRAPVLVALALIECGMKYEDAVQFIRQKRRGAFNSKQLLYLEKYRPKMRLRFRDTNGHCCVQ

recombinant PRL-3 = biological target: T3, recombinant PRL-3 (Homo sapiens, UniProt O75365); assay: In vitro phosphatase assay (DiFMUP hydrolysis), PRL-3; also: test concentration or dose not given here
T3 construct: 6xHis (N, cleaved yes); made in house; host or cells: E. coli One Shot BL21 Star

[1] = FDA-approved drug screen, compared to DMSO

T3 sequence (O75365 whole entry): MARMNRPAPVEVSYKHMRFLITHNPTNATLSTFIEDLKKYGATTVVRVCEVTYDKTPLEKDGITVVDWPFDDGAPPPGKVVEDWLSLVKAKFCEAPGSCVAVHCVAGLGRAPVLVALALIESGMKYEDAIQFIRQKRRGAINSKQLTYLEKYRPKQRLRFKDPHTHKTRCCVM

| SMILES | % Phosphatase Activity (compared to DMSO) PRL-1 (recombinant PRL-1; [1]) [%] | % Phosphatase Activity (compared to DMSO) PRL-2 (recombinant PRL-2; [1]) [%] | % Phosphatase Activity (compared to DMSO) PRL-3 (recombinant PRL-3; [1]) [%] | % Phosphatase Activity (compared to DMSO) PRL-1 (recombinant PRL-1) [%] | % Phosphatase Activity (compared to DMSO) PRL-2 (recombinant PRL-2) [%] | % Phosphatase Activity (compared to DMSO) PRL-3 (recombinant PRL-3) [%] |
| --- | --- | --- | --- | --- | --- | --- |
| CCCCc1nc(Cl)c(CO)n1Cc1ccc(-c2ccccc2-c2nnn[n-]2)cc1.[K+] [Losartan Potassium (DuP 753)] | 94 | 93 | 71 |  |  |  |
| Cc1c(F)cc(C(=O)NC2CC2)cc1-c1ccc(C(=O)NCC(C)(C)C)cn1 [Losmapimod (GW856553X)] | 91 | 66 | 103 |  |  |  |
| CCOC(=O)O[C@]1(C(=O)OCCl)CC[C@H]2[C@@H]3CCC4=CC(=O)C=C[C@]4(C)[C@H]3[C@@H](O)C[C@@]21C [Loteprednol etabonate] | 100 | 89 | 82 |  |  |  |
| CC[C@H](C)C(=O)O[C@H]1C[C@@H](C)C=C2C=C[C@H](C)[C@H](CC[C@@H]3C[C@@H](O)CC(=O)O3)[C@H]21 [Lovastatin] | 89 | 93 | 87 |  |  |  |
| CN1CCN(C2=Nc3ccccc3Oc3ccc(Cl)cc32)CC1 [Loxapine Succinate] | 96 | 110 | 90 |  |  |  |
| CC(C(=O)O)c1ccc(CC2CCCC2=O)cc1 (stereo not drawn) [Loxoprofen] | 109 | 83 | 102 |  |  |  |
| N#C/C(=C1/SC[C@@H](c2ccc(Cl)cc2Cl)S1)n1ccnc1 [Luliconazole] | 98 | 90 | 83 |  |  |  |
| Cn1cnc2c(F)c(Nc3ccc(Br)cc3F)c(C(=O)NOCCO)cc21 [MEK162 (ARRY-162, ARRY-438162)] | 85 | 72 | 91 |  |  |  |
| CC(C)C[C@H](NC(=O)CNC(=O)c1cc(Cl)ccc1Cl)B(O)O [MLN2238] | 102 | 105 | 86 |  |  |  |
| CCCNS(=O)(=O)Nc1ncnc(OCCOc2ncc(Br)cn2)c1-c1ccc(Br)cc1 [Macitentan] | 93 | 75 | 85 |  |  |  |
| CC(C)OC(=O)C(C(=O)OC(C)C)=C1SC=CS1 [Malotilate] | 70 | 58 | 61 |  |  |  |
| COC(=O)C1=C(C)NC(C)=C(C(=O)OCCN2CCN(C(c3ccccc3)c3ccccc3)CC2)C1c1cccc([N+](=O)[O-])c1.Cl.Cl (stereo not drawn) [Manidipine 2HCl] | 97 | 87 | 82 |  |  |  |
| CNCCCC12CCC(c3ccccc31)c1ccccc12 [Maprotiline HCl] |  |  |  | 127 | 116 | 87 |
| CN1CCN(c2c(F)cc3c(=O)c(C(=O)O)cn4c3c2OCN4C)CC1 [Marbofloxacin] | 345 | 386 | 180 |  |  |  |
| CNC(=O)[C@@H](NC(=O)[C@H](CC(C)C)[C@H](O)C(=O)NO)C(C)(C)C [Marimastat(BB-2516)] | 85 | 77 | 91 |  |  |  |
| Cc1ccc(NC(=O)c2ccc(CN3CCN(C)CC3)cc2)cc1Nc1nc(-c2cccnc2)cs1 [Masitinib (AB1010)] | 115 | 117 | 92 |  |  |  |
| COC(=O)Nc1nc2ccc(C(=O)c3ccccc3)cc2[nH]1 [Mebendazole] | 90 | 83 | 79 |  |  |  |
